Patent US6515103B1 (priority 1996, dated 2003)
Where a SMILES comes first, the peptide text is derived from it. [ ]: non-standard residue; d: D form. Gla = N[C@@H](CC(C(=O)O)C(=O)O)C(=O)O

What was measured:
NMDA receptor = type: binding
in vitro = conditions: Frings audiogenic, mouse

Compound	IC50 (NMDA receptor)	half-life (in vitro; brain homogenate)	half-life (in vitro; tissue homogenate)
CC[C@H](C)[C@H](NC(=O)[C@H](CC(C)C)NC(=O)[C@H](Cc1ccc(O)cc1)NC(=O)[C@H](CCC(N)=O)NC(=O)[C@H](CC(N)=O)NC(=O)[C@H](C)NC(=O)[C@H](CCC(N)=O)NC(=O)[C@H](CC(C)C)NC(=O)[C@H](CC(C(=O)O)C(=O)O)NC(=O)[C@H](CC(C(=O)O)C(=O)O)NC(=O)[C@H](CCC(=O)O)NC(=O)CN)C(=O)N[C@@H](CCCNC(=N)N)C(=O)N[C@@H](CC(C(=O)O)C(=O)O)C(=O)N[C@@H](CCCCN)C(=O)N[C@@H](CO)C(=O)N[C@@H](CC(N)=O)C(N)=O [A^7,Y^10] (H-GE[Gla][Gla]LQANQYLIR[Gla]KSN-NH2; N-terminus assumed)	79 nM	–	–
CC[C@H](C)[C@H](NC(=O)[C@H](CC(C)C)NC(=O)[C@H](CCC(=O)O)NC(=O)[C@H](CCC(N)=O)NC(=O)[C@H](CC(N)=O)NC(=O)[C@H](CCC(=O)O)NC(=O)[C@H](CCC(N)=O)NC(=O)[C@H](CC(C)C)NC(=O)[C@H](CCC(=O)O)NC(=O)[C@H](CCC(=O)O)NC(=O)[C@H](CCC(=O)O)NC(=O)CN)C(=O)N[C@@H](CCCNC(=N)N)C(=O)N[C@@H](CCC(=O)O)C(=O)N[C@@H](CCCCN)C(=O)N[C@@H](CO)C(=O)N[C@@H](CC(N)=O)C(N)=O [ECon G]	–	1.6 min	0.425 min
CC[C@H](C)[C@H](NC(=O)[C@H](CC(C)C)NC(=O)[C@H](C)NC(=O)[C@H](CCC(N)=O)NC(=O)[C@H](CC(N)=O)NC(=O)[C@H](C)NC(=O)[C@H](CCC(N)=O)NC(=O)[C@H](CC(C)C)NC(=O)[C@H](CC(C(=O)O)C(=O)O)NC(=O)[C@H](CC(C(=O)O)C(=O)O)NC(=O)[C@H](CCC(=O)O)NC(=O)CN)C(=O)N[C@@H](CCCNC(=N)N)C(N)=O [(A^7,10)1-13] (H-GE[Gla][Gla]LQANQALIR-NH2; N-terminus assumed)	253 nM	–	–
CC[C@H](C)[C@H](NC(=O)[C@H](CC(C)C)NC(=O)[C@H](C)NC(=O)[C@H](CCC(N)=O)NC(=O)[C@H](CC(N)=O)NC(=O)[C@H](C)NC(=O)[C@H](CCC(N)=O)NC(=O)[C@H](CC(C)C)NC(=O)[C@H](CC(C(=O)O)C(=O)O)NC(=O)[C@H](CC(C(=O)O)C(=O)O)NC(=O)[C@H](CCC(=O)O)NC(=O)CN)C(N)=O [(A^7,10)1-12] (H-GE[Gla][Gla]LQANQALI-NH2; N-terminus assumed)	300 nM	–	–
CC[C@H](C)[C@H](NC(=O)[C@H](CC(C)C)NC(=O)[C@H](CC(C(=O)O)C(=O)O)NC(=O)[C@H](CCC(N)=O)NC(=O)[C@H](CC(N)=O)NC(=O)[C@H](CC(C(=O)O)C(=O)O)NC(=O)[C@H](CCC(N)=O)NC(=O)[C@H](CC(C)C)NC(=O)[C@H](CCC(=O)O)NC(=O)[C@H](CC(C(=O)O)C(=O)O)NC(=O)[C@H](CCC(=O)O)NC(=O)CN)C(=O)N[C@@H](CCCNC(=N)N)C(=O)N[C@@H](CC(C(=O)O)C(=O)O)C(=O)N[C@@H](CCCCN)C(=O)N[C@@H](CO)C(=O)N[C@@H](CC(N)=O)C(N)=O [E^4]	≥ 20000 nM	–	–
